Laboratory results from patent US9428515B2, “Benzimidazole derivatives” (Boehringer Ingelheim International GmbH, priority 2014, dated 2016).

Biological target: T1, BRD4-BD1 (Homo sapiens, UniProt O60885)
T1 construct: 15 nM GST-BRD4-BD1 protein (aa 44-168)
Assay: BRD4-H4 tetraacetylated peptide inhibition AlphaScreen
Type: binding
Details: 15 nM GST-BRD4-BD1 (aa 44-168), 15 nM biotinylated Acetyl-Histone H4 (Lys5, 8, 12, 16) peptide, 30 min at RT
Experimental: Biological Methods BRD4-H4 Tetraacetylated Peptide Inhibition AlphaScreen
Compounds are diluted in serial dilution 1:5 in assay buffer from 10 mM stock in DMSO (100 μM start concentration) in white OptiPlate-384 (PerkinElmer). A mix consisting of 15 nM GST-BRD4-BD1 protein (aa 44-168) or 150 nM GST-BRD4-BD2 (aa 333-460) and 15 nM biotinylated Acetyl-Histone H4 (Lys5, 8, 12, 16) peptide is prepared in assay buffer (50 mM HEPES pH=7.4; 25 mM NaCl; 0.05% Tween 20; 0.1% bovine serum albumin (BSA); 10 mM dithiothreitol (DTT)). 6 μl of the mix is added to the compound dilutions. Subsequently, 6 μl of premixed AlphaLISA Glutathione Acceptor Beads and AlphaScreen Streptavidin Donor Beads from PerkinElmer (in assay buffer at a concentration of 10 μg/ml each) are added and the samples are incubated for 30 min at RT in the dark (shaking 300 rpm). Afterwards, the signal is measured in a PerkinElmer Envision HTS Multilabel Reader using the AlphaScreen protocol from PerkinElmer.
Each plate contains negative controls where biotinylated Acetyl-Histone H4 peptide and GST-BRD4-BD1 or GST-BRD4-BD2 are left out and replaced by assay buffer. Negative control values are entered as low basis value when using the software GraphPad Prism for calculations. Furthermore, a positive control (probe molecule JQ1+ with protein/peptide mix) is pipetted. Determination of IC50 values are carried out using GraphPad Prism 3.03 software (or updates thereof).

For `COC[C@H](C)n1c(-c2cc(C)c(=O)n(C)c2)nc2cc3c(cc21)N(C)C(=O)C3(C)C` [I-1, 2-(1,5-Dimethyl-6-oxo-1,6-dihydro-pyridin-3-yl)-3-((S)-2-methoxy-1-methyl-ethyl)-5,7,7-trimethyl-5,7-dihydro-3H-imidazo[4,5-f]indol-6-one], the IC50 was 50 nM.
Molecule `Cc1cc(-c2nc3cc4c(cc3n2[C@@H](C)c2ccccc2)N(C(C)C)C(=O)C4(C)C)cn(C)c1=O` [I-2, 2-(1,5-Dimethyl-6-oxo-1,6-dihydro-pyridin-3-yl)-5-isopropyl-7,7-dimethyl-3-((S)-1-phenyl-ethyl)-5,7-dihydro-3H-imidazo[4,5-f]indol-6-one] has an IC50 of 3 nM.
Work on `Cc1cc(-c2nc3cc4c(cc3n2Cc2ccccn2)N(C)C(=O)C4(C)C)cn(C)c1=O` [I-3] yielded an IC50 of 44 nM.
For `COC[C@H](C)n1c(-c2cc(C)c(=O)n(C)c2)nc2cc3c(cc21)N(C(C)C)C(=O)C3(C)C` [I-4], the IC50 was 22 nM.
Molecule `Cc1nc(-c2nc3cc4c(cc3n2[C@@H](C)c2ccccc2)N(C(C)C)C(=O)C4(C)C)cn(C)c1=O` [I-5] has an IC50 of 9 nM.
`Cc1nc(-c2nc3cc4c(cc3n2[C@@H](C)c2ccccc2)N(C)C(=O)C4(C)C)cn(C)c1=O` [I-6] gave an IC50 of 15 nM.
`Cc1cc(-c2nc3cc4c(cc3n2[C@@H](C)c2ccccc2)N(C)C(=O)C4(C)C)cn(C)c1=O` [I-7] was tested, and the IC50 was 4 nM.
Molecule `CCN1C(=O)C(C)(C)c2cc3nc(-c4cc(C)c(=O)n(C)c4)n([C@@H](C)c4ccccc4)c3cc21` [I-8] has an IC50 of 2 nM.
With `Cc1cc(-c2nc3cc4c(cc3n2[C@@H](C)c2ccccc2)N(C(C)C)C(=O)C42CC2)cn(C)c1=O` [I-9] the IC50 was 17 nM.
`Cc1cc(-c2nc3cc4c(cc3n2[C@@H](C)c2ccccc2)C(=O)N(C)C4(C)C)cn(C)c1=O` [II-1] was tested, and the IC50 was 13 nM.
`Cc1cc(-c2nc3cc4c(C)nn(C)c4cc3n2[C@@H](C)c2ccccc2)cn(C)c1=O` [III-1] gave an IC50 of 5 nM.
`CCn1nc(C)c2cc3nc(-c4cc(C)c(=O)n(C)c4)n([C@@H](C)c4ccccc4)c3cc21` [III-2] was tested, and the IC50 was 8 nM.
In the case of `CCc1nn(C)c2cc3c(cc12)nc(-c1cc(C)c(=O)n(C)c1)n3[C@@H](C)c1ccccc1` [III-3], the IC50 is reported as 9 nM.
